# Test results published in patent publication US20230116972A1, “CD38 MODULATORS AND METHODS OF USE THEREOF” (Cytokinetics, Inc., priority 2021, published 2023).
# How the values were obtained:
# [1] = molecular target: T1, endogenous CD38 in HL60 cells (Homo sapiens, UniProt P28907); assay: cellular CD38 assay in HL60 cells (cellular NAD levels); type: cell-based; settings: all-trans retinoic acid, 24 hours, read-out: hCD38 HL60 ATRA NAD Cell Diaphorase IC50
# T1 construct: endogenous in cells; host or cells: HL60 (leukemic cells, treated with all-trans retinoic acid)
# T1 sequence (P28907 1-300): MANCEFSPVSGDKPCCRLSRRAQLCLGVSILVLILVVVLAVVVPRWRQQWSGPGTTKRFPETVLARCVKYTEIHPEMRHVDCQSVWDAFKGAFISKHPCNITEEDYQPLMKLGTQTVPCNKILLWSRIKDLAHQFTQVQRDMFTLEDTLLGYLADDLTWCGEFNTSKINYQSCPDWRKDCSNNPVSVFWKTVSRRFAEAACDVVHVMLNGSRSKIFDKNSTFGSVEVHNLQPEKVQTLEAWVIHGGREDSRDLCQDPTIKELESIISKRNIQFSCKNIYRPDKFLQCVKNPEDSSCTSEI
# Outline: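 Endogenous CD38 inhibition is inferred from NAD levels in HL60 cells after 24 h compound exposure at 20000 cells per well. A lytic cycling readout (0.2 U/mL diaphorase, 0.8 U/mL alcohol dehydrogenase, resazurin, FMN, ethanol, 0.2% Triton X-100, Tris/EDTA pH 8.4) ran 60 min at ambient temperature. Resorufin fluorescence was read at 540/590 nm.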
# human CD38 = molecular target: T2, human CD38 (Homo sapiens, UniProt P28907); assay: human recombinant CD38 enzyme assay (hydrolysis of NAD+); type: biochemical; settings: human recombinant CD38, 0.4 nM enzyme, 62.5 μM NAD+; read-out: hCD38 BioChem IC50
# T2 sequence (P28907 1-300): T1 sequence (P28907 1-300)
# Outline: (§1)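 Steps: compound and recombinant enzyme are mixed, NAD+ is added, and the reaction runs 60 min at room temperature. An ADH/ethanol mix containing a CD38 inhibitor halts hydrolysis and forms NADH. After NaOH quench, resazurin plus diaphorase produce fluorescent resorufin, read at 540/590 nm.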
# mouse CD38 = molecular target: T3, mouse CD38 (Mus musculus, UniProt P56528); assay: mouse recombinant CD38 enzyme assay (hydrolysis of NAD+); type: biochemical; settings: read-out: mCD38 BioChem IC50
# T3 sequence (P56528 1-304): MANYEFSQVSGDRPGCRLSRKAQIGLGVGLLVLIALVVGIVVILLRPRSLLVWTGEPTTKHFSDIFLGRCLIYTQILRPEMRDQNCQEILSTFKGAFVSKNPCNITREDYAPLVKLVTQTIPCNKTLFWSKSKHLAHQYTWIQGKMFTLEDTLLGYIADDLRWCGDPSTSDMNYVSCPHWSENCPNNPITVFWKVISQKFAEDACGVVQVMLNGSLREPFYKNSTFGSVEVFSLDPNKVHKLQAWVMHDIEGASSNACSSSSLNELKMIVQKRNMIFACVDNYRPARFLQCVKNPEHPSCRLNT
# Outline: as §1
SMILES,IC50 [1],IC50 (human CD38),IC50 (mouse CD38)
"Cn1cncc1-c1cncc(C(=O)Nc2ccc(C(F)(F)F)nc2)n1 [Compound 90, 6-(1-methyl-1H-imidazol-5-yl)-N-(6-(trifluoromethyl)pyridin-3-yl)pyrazine-2-carboxamide]",369 nM,4 nM,13 nM
"CO[C@H]1CC[C@H](NC(=O)c2cncc(-c3cncn3C)n2)CC1 [Compound 91, N-((1r,4r)-4-methoxycyclohexyl)-6-(1-methyl-1H-imidazol-5-yl)pyrazine-2-carboxamide]",2080 nM,38 nM,19 nM
"O=C(Nc1ccc(C(F)F)nc1)c1ccnc(-n2ccnc2)n1 [Compound 93, N-(6-(difluoromethyl)pyridin-3-yl)-2-(1H-imidazol-1-yl)pyrimidine-4-carboxamide]",187 nM,2 nM,5 nM
"Cn1cncc1-c1nccc(C(=O)Nc2ccc(C(F)F)nc2)n1 [Compound 94, N-(6-(difluoromethyl)pyridin-3-yl)-2-(1-methyl-1H-imidazol-5-yl)pyrimidine-4-carboxamide]",241 nM,2 nM,2 nM
"O=C(Nc1ccc(C(F)F)nc1)c1cccc(-n2ccnc2)n1 [Compound 95, N-(6-(difluoromethyl)pyridin-3-yl)-6-(1H-imidazol-1-yl)picolinamide]",280 nM,4 nM,6 nM
"Cn1cncc1-c1cncc(C(=O)N[C@H]2CC[C@H](C)CC2)n1 [Compound 104, 6-(1-methyl-1H-imidazol-5-yl)-N-((1r,4r)-4-methylcyclohexyl)pyrazine-2-carboxamide]",1360 nM,24 nM,10 nM
"Cn1cncc1-c1cncc(C(=O)NC2CC3(C2)CC(F)(F)C3)n1 [Compound 105, N-(6,6-difluorospiro[3.3]heptan-2-yl)-6-(1-methyl-1H-imidazol-5-yl)pyrazine-2-carboxamide]",1670 nM,80 nM,24 nM
"COC(=O)[C@H]1CC[C@H](NC(=O)c2ccnc(-c3cncn3C)n2)CC1 [Compound 107, methyl (1r,4r)-4-(2-(1-methyl-1H-imidazol-5-yl)pyrimidine-4-carboxamido)cyclohexane-1-carboxylate]",1290 nM,9 nM,2 nM
"O=C(Nc1ccc(C(F)F)nc1)c1cc(C2CC2)nc(-c2cncs2)n1 [Compound 110, 6-cyclopropyl-N-(6-(difluoromethyl)pyridin-3-yl)-2-(thiazol-5-yl)pyrimidine-4-carboxamide]",2550 nM,108 nM,20 nM
"O=C(Nc1ccc(C(F)F)nc1)c1ccnc(-c2cncs2)n1 [Compound 114, N-(6-(difluoromethyl)pyridin-3-yl)-2-(thiazol-5-yl)pyrimidine-4-carboxamide]",4330 nM,173 nM,150 nM
"O=C(Nc1ccc(C(F)F)nc1)c1cc(C(F)(F)F)nc(-c2cncs2)n1 [Compound 116, N-(6-(difluoromethyl)pyridin-3-yl)-2-(thiazol-5-yl)-6-(trifluoromethyl)pyrimidine-4-carboxamide]",8160 nM,507 nM,185 nM
"Cc1cc(C(=O)Nc2ccc(C(F)(F)F)nc2)nc(-n2ccnc2)n1 [Compound 117, 2-(1H-imidazol-1-yl)-6-methyl-N-(6-(trifluoromethyl)pyridin-3-yl)pyrimidine-4-carboxamide]",350 nM,4 nM,1 nM
"CO[C@H]1CC[C@H](NC(=O)c2cc(C)nc(-c3cncn3C)n2)CC1 [Compound 121, N-((1r,4r)-4-methoxycyclohexyl)-6-methyl-2-(1-methyl-1H-imidazol-5-yl)pyrimidine-4-carboxamide]",1050 nM,14 nM,1 nM

# Continued, values first:
IC50 [1],IC50 (human CD38),IC50 (mouse CD38),SMILES
1180 nM,22 nM,13 nM,"Cn1cncc1-c1cncc(C(=O)N[C@H]2CC[C@H](C(F)F)CC2)n1 [Compound 92, N-((1r,4r)-4-(difluoromethyl)cyclohexyl)-6-(1-methyl-1H-imidazol-5-yl)pyrazine-2-carboxamide]"
1630 nM,23 nM,3 nM,"CO[C@H]1CC[C@H](NC(=O)c2cc(C)cc(-n3ccnc3)n2)CC1 [Compound 96, 6-(1H-imidazol-1-yl)-N-(4-methoxycyclohexyl)-4-methylpicolinamide]"
1530 nM,24 nM,3 nM,"Cc1cc(C(=O)N[C@H]2CC[C@H](C(F)F)CC2)nc(-n2ccnc2)c1 [Compound 97, N-(4-(difluoromethyl)cyclohexyl)-6-(1H-imidazol-1-yl)-4-methylpicolinamide]"
4740 nM,106 nM,10 nM,"CO[C@H]1CC[C@H](NC(=O)c2cc(C)cc(-c3cncn3C)n2)CC1 [Compound 98, N-(4-methoxycyclohexyl)-4-methyl-6-(1-methyl-1H-imidazol-5-yl)picolinamide]"
5130 nM,80 nM,7 nM,"Cc1cc(C(=O)N[C@H]2CC[C@H](C(F)F)CC2)nc(-c2cncn2C)c1 [Compound 99, N-(4-(difluoromethyl)cyclohexyl)-4-methyl-6-(1-methyl-1H-imidazol-5-yl)picolinamide]"
6200 nM,263 nM,61 nM,"CO[C@H]1CC[C@H](NC(=O)c2nc(-n3ccnc3)ccc2C)CC1 [Compound 100, 6-(1H-imidazol-1-yl)-N-(4-methoxycyclohexyl)-3-methylpicolinamide]"
8310 nM,210 nM,42 nM,"Cc1ccc(-n2ccnc2)nc1C(=O)N[C@H]1CC[C@H](C(F)F)CC1 [Compound 101, N-(4-(difluoromethyl)cyclohexyl)-6-(1H-imidazol-1-yl)-3-methylpicolinamide]"
1010 nM,23 nM,7 nM,"C[C@H]1CC[C@H](NC(=O)c2cncc(-n3ccnc3)n2)CC1 [Compound 102, 6-(1H-imidazol-1-yl)-N-((1r,4r)-4-methylcyclohexyl)pyrazine-2-carboxamide]"
1620 nM,146 nM,30 nM,"O=C(NC1CC2(C1)CC(F)(F)C2)c1cncc(-n2ccnc2)n1 [Compound 103, N-(6,6-difluorospiro[3.3]heptan-2-yl)-6-(1H-imidazol-1-yl)pyrazine-2-carboxamide]"
1800 nM,22 nM,9 nM,"COC(=O)[C@H]1CC[C@H](NC(=O)c2ccnc(-n3ccnc3)n2)CC1 [Compound 106, methyl (1r,4r)-4-(2-(1H-imidazol-1-yl)pyrimidine-4-carboxamido)cyclohexane-1-carboxylate]"
5490 nM,129 nM,38 nM,"CO[C@H]1CC[C@H](NC(=O)c2cc(C(F)(F)F)nc(-n3ccnc3)n2)CC1 [Compound 111, 2-(1H-imidazol-1-yl)-N-((1r,4r)-4-methoxycyclohexyl)-6-(trifluoromethyl)pyrimidine-4-carboxamide]"
1620 nM,17 nM,3 nM,"CO[C@H]1CC[C@H](NC(=O)c2cc(C)nc(-n3ccnc3)n2)CC1 [Compound 118, 2-(1H-imidazol-1-yl)-N-((1r,4r)-4-methoxycyclohexyl)-6-methylpyrimidine-4-carboxamide]"
1580 nM,10 nM,1 nM,"Cc1cc(C(=O)N[C@H]2CC[C@H](C)CC2)nc(-n2ccnc2)n1 [Compound 119, 2-(1H-imidazol-1-yl)-6-methyl-N-((1r,4r)-4-methylcyclohexyl)pyrimidine-4-carboxamide]"
1130 nM,10 nM,2 nM,"Cc1cc(C(=O)N[C@H]2CC[C@H](C(F)F)CC2)nc(-n2ccnc2)n1 [Compound 120, N-((1r,4r)-4-(difluoromethyl)cyclohexyl)-2-(1H-imidazol-1-yl)-6-methylpyrimidine-4-carboxamide]"
1010 nM,10 nM,1 nM,"Cc1cc(C(=O)N[C@H]2CC[C@H](C(F)F)CC2)nc(-c2cncn2C)n1 [Compound 122, N-((1r,4r)-4-(difluoromethyl)cyclohexyl)-6-methyl-2-(1-methyl-1H-imidazol-5-yl)pyrimidine-4-carboxamide]"
952 nM,10 nM,1 nM,"Cc1cc(C(=O)N[C@H]2CC[C@H](C)CC2)nc(-c2cncn2C)n1 [Compound 123, 6-methyl-2-(1-methyl-1H-imidazol-5-yl)-N-((1r,4r)-4-methylcyclohexyl)pyrimidine-4-carboxamide]"
